These results are taken from ChEMBL document CHEMBL4229477, “Reevaluating the Substrate Specificity of the L-Type Amino Acid Transporter (LAT1)” (J Med Chem, 2018).

Usually inhibition stands for the drop in the measured response relative to a control, in per cent. In general, Km refers to the substrate concentration at which the rate is half of its maximum.

Series [1] has as its target Large neutral amino acids transporter small subunit 1 (Homo sapiens) (UniProt Q01650). The experiment in a line: Cis-inhibition of human LAT1 expressed in TREx HEK293 cells at 200 uM assessed as inhibition of [3H]-gabapentin uptake at 200 uM preincubated for 3 mins at 37 degC followed by washing with choline buffer and measured after 3 hrs by scintillation counting analysis relative to BCH. The class given is cell-based.

The target is the same in series [2]. The experiment in a line: Trans-stimulation of human LAT1 expressed in TREx HEK293 cells assessed as induction of [3H]-gabapentin efflux at 200 uM after 3 mins by scintillation counting analysis relative to L-phenylalanine. It is filed as cell-based.
In series [3] the test system is N[C@@H](Cc1ccccc1)C(=O)O. The experiment in a line: Binding affinity to LAT1 (unknown origin) by in-vitro cell uptake assay. The conditions noted are these: Homo sapiens.
Series [4] has as its system N[C@@H](Cc1ccccc1)C(=O)O. The experiment in a line: (§1) Substrate activity at recombinant human LAT1 expressed in Xenopus laevis oocytes assessed as Km by measuring L-[14C]-leucine uptake by Eadie-Hofstee plot method. It is filed as cell-based.
Another series relates to N[C@H](Cc1ccccc1)C(=O)O. Described as §1. It is filed as cell-based.

Sequence of Large neutral amino acids transporter small subunit 1 (Homo sapiens) (Q01650 whole entry): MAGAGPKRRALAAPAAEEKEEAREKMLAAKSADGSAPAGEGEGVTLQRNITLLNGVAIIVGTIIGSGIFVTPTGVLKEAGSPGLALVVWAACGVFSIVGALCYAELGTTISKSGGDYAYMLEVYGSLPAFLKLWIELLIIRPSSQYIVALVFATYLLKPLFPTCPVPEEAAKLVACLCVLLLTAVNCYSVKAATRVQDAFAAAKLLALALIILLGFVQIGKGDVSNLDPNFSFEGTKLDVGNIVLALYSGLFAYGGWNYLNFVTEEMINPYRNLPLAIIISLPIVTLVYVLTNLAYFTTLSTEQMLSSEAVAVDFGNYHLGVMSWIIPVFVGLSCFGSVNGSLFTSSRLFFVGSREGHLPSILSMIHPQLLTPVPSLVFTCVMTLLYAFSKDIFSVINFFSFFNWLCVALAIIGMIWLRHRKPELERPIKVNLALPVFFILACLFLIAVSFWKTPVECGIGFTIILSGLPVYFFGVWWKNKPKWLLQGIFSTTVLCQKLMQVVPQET
Sequence of Large neutral amino acids transporter small subunit 1 (Homo sapiens), Q01650 (Q01650 whole entry): as above

As for `N[C@H](Cc1ccc(O)cc1)C(=O)O`, in series [1], the inhibition stood at 35%. Besides, the Activity in series [2] worked out at 85%.
In the same order, the values of `N[C@@H](Cc1cccc(CO)c1)C(=O)O` are 99% and 120%.
Turning to `N[C@@H](Cc1ccccc1)C(=O)O`, the Activity in series [2] was determined as 100%.
In the case of “Large neutral amino acids transporter small subunit 1 (Homo sapiens), Q01650”, the Km with N[C@@H](Cc1ccccc1)C(=O)O [3] was found to be 11 µM; with N[C@@H](Cc1ccccc1)C(=O)O [4] it was 14.2 µM; with N[C@H](Cc1ccccc1)C(=O)O it was 121 µM.
With `N[C@@H](Cc1c[nH]cn1)C(=O)O`, in series [1], the inhibition turned out to be 92%. In addition, in series [2], the Activity is 140%.
`N[C@H](Cc1ccccc1)C(=O)O`: the inhibition in series [1] turned out to be 74%. Besides, the Activity in series [2] is 96%.
With `CSCC[C@H](N)C(=O)O`, in series [2], the Activity is 89%.
For `CSCC[C@@](N)(Cc1ccccc1)C(=O)O`, in series [1], the inhibition is -0.2%. For the same molecule, in series [2], the Activity amounted to 27%.
For the molecule `N[C@@H](Cc1cn(Cc2ccccc2)cn1)C(=O)O`, the inhibition in series [1] was 74%. Besides, in series [2], the Activity is 81%.
In the same order, the values of `COC(=O)Cc1cccc(C[C@H](N)C(=O)O)c1` are 72% and 52%.
As for `CC(C)C[C@](N)(Cc1ccccc1)C(=O)O`, in series [1], the inhibition came out at 15%. In addition, the Activity in series [2] is 19%.
As for `N[C@@](Cc1ccccc1)(Cc1c[nH]cn1)C(=O)O`, in series [1], the inhibition is 19%. In addition, in series [2], the Activity amounted to 13%.
Turning to `N[C@@H](Cc1cccc(O)c1)C(=O)O`, the inhibition in series [1] amounted to 97%. In series [2], the Activity stood at 96%.
`N[C@@H](Cc1ccc(O)cc1)C(=O)O`: in series [2], the Activity came out at 96%.
Consider `CC[C@H](C)[C@@H](N)C(=O)O`, for which the inhibition in series [1] was 18%. Besides, the Activity in series [2] was 78%.
On the same counts, the results for `NCCCC[C@H](N)C(=O)O` are -2.1% and 33%.
On the same counts, the results for `COC(=O)c1cccc(C[C@H](N)C(=O)O)c1` are 81% and 89%.
In the same order, the values of `COC(=O)c1cc(C)cc(C[C@H](N)C(=O)O)c1` are 71% and 56%.
`N[C@@H](Cc1cccc(CC(=O)O)c1)C(=O)O`: the inhibition in series [1] is 25%. For the same molecule, the Activity in series [2] was 24%.
Consider `N[C@@H](Cc1cccc(C(=O)OCCO)c1)C(=O)O`, for which, in series [1], the inhibition worked out at 81%. Further, the Activity in series [2] is 74%.
On the same counts, the results for `CSCC[C@@H](N)C(=O)O` are 56% and 110%.
Regarding `N[C@@H](Cc1c[nH]c2ccccc12)C(=O)O`, the Activity in series [2] worked out at 59%.
In the case of `N[C@@H](Cc1cccc(C(=O)O)c1)C(=O)O`, the inhibition in series [1] worked out at 69%. Moreover, the Activity in series [2] is 56%.
`N=C(N)NCCC[C@H](N)C(=O)O`: the Activity in series [2] turned out to be 28%.
With `NC(Cc1ccccc1)(Cc1ccccc1)C(=O)O`, in series [1], the inhibition turned out to be 11%. The Activity in series [2] was 23%.
Regarding `N[C@@H](Cc1cccc(-c2ccccc2)c1)C(=O)O`, the Activity in series [2] was found to be 29%.
Consider `N[C@H](Cc1c[nH]cn1)C(=O)O`, for which the inhibition in series [1] worked out at 33%. For the same molecule, the Activity in series [2] turned out to be 78%.
With `N[C@@H](CCC(=O)O)C(=O)O`, the inhibition in series [1] was -2.4%. In series [2], the Activity was determined as 27%.
On to `Cc1cc(C[C@H](N)C(=O)O)cc(C(=O)O)c1`, for which the inhibition in series [1] came to 30%. Further, the Activity in series [2] was 28%.
`CC(C)[C@H](N)C(=O)O`: the inhibition in series [1] was 43%. Moreover, the Activity in series [2] was determined as 100%.
Turning to `CNC(=O)c1cccc(C[C@H](N)C(=O)O)c1`, in series [1], the inhibition came to 88%. The Activity in series [2] stood at 100%.
On the same counts, the results for `NCc1cccc(C[C@H](N)C(=O)O)c1` are 27% and 78%.
In the same order, the values of `CC(C)(C)OC(=O)c1cccc(C[C@H](N)C(=O)O)c1` are 99% and 70%.
Consider `NCC(=O)O`, for which the Activity in series [2] turned out to be 29%.
For the molecule `CC(=O)c1cccc(C[C@H](N)C(=O)O)c1`, in series [1], the inhibition was determined as 100%. For the same molecule, in series [2], the Activity is 96%.
In the same order, the values of `CC(=O)Nc1cccc(C[C@H](N)C(=O)O)c1` are 85% and 110%.
In the same order, the values of `CC(C)[C@@H](N)C(=O)O` are 11% and 41%.
In the same order, the values of `COC(=O)c1ccc(C[C@H](N)C(=O)O)cc1` are 37% and 67%.
`CC(=O)Oc1cccc(C[C@H](N)C(=O)O)c1`: the inhibition in series [1] was 54%. Moreover, in series [2], the Activity was determined as 37%.
On the same counts, the results for `CSCC[C@](N)(Cc1ccccc1)C(=O)O` are 21% and 56%.
With `Cc1ccc(C[C@H](N)C(=O)O)cc1`, the Activity in series [2] turned out to be 100%.
Take `N[C@H](Cc1cccc(C(=O)O)c1)C(=O)O`: the inhibition in series [1] turned out to be 9%. Further, the Activity in series [2] was 31%.
Regarding `Nc1cccc(C[C@H](N)C(=O)O)c1`, the inhibition in series [1] was 100%. In addition, the Activity in series [2] amounted to 100%.
With `COC(=O)c1cccc(C[C@@H](N)C(=O)O)c1`, the inhibition in series [1] is 40%. Moreover, the Activity in series [2] amounted to 41%.
On the same counts, the results for `N[C@H](Cc1c[nH]c2ccccc12)C(=O)O` are 29% and 81%.
Consider `CC[C@H](C)[C@H](N)C(=O)O`, for which, in series [2], the Activity was 93%.
In the case of `N[C@@H](Cc1cccc(Cc2ccccc2)c1)C(=O)O`, in series [2], the Activity turned out to be 29%.
For the molecule `CC(C)(C)c1cccc(C[C@H](N)C(=O)O)c1`, the inhibition in series [1] turned out to be 101%. In addition, the Activity in series [2] amounted to 44%.
For the molecule `CC(C)C[C@@](N)(Cc1ccccc1)C(=O)O`, the inhibition in series [1] came to 2.1%. In addition, in series [2], the Activity was determined as 27%.
For `N#Cc1cccc(C[C@H](N)C(=O)O)c1`, the inhibition in series [1] is 67%. Besides, the Activity in series [2] is 70%.
In the same order, the values of `N[C@@H](Cc1cccc(C(F)(F)F)c1)C(=O)O` are 87% and 59%.
Turning to `Cc1cccc(C[C@H](N)C(=O)O)c1`, the Activity in series [2] is 140%.
